This is an account of results in US20220402948A1, “EGFR INHIBITOR, COMPOSITION AND PREPARATION METHOD THEREFOR” (BETTA PHARMACEUTICALS CO., LTD., priority 2019, published 2022).

Like-named read-outs stand apart in the source and are kept apart here.

The target of one test is IGF1R (Homo sapiens, UniProt P08069). In words: IGF1R kinase test (mobility variation analysis, Caliper EZ Reader). The note with it: kinase enzymatic activity, Table 1; read-out: EGFR IGF1R IC50. Type of test: biochemical. In a few lines:
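Kinase preincubated 10 min at room temperature with compound (10-point 3-fold series, top 3000 nM), then ATP and substrate added and reacted at room temperature. Substrate conversion read by mobility-shift (Caliper EZ Reader); % inhibition vs no-enzyme and no-compound controls fitted to variable-slope curve for IC50.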

The next test deals with EGFRΔ19del/T790M/C797S (Homo sapiens, UniProt P00533, T790M/C797S, form not given). In words: EGFR Δ19del/T790M/C797S kinase test (mobility variation analysis, Caliper EZ Reader). As to conditions: kinase enzymatic activity, Table 1. Type of test: biochemical. The essentials: (§1)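 Kinase pre-incubated with compound 10 minutes at room temperature, then ATP plus peptide substrate added; substrate conversion read by mobility shift after stop solution. Percent inhibition normalized to no-compound and no-enzyme controls; IC50 from variable-slope log(inhibitor) fit.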

The test system of a further test is A431. Description: A431 cell proliferation assay (CellTiter Glo, 72 hours). The format is cell-based. As to conditions: cell proliferation, A431, 72 hours, Table 2, read-out: A431 IC50. In a few lines: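 A431 cells (2000/well) exposed 72 h to compound at 1000 nM down to 0.2 nM in 3-fold steps, 0.1% DMSO (0.5% for some series). Viability by CellTiter-Glo luminescence; IC50 by four-parameter nonlinear regression.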
On the technique in general: ATP-based viability assays read luminescence as a measure of living cells.

The target in another test is EGFR WT (Homo sapiens, UniProt P00533). Description: EGFR WT kinase test (mobility variation analysis, Caliper EZ Reader). Type of test: biochemical. The note with it: kinase enzymatic activity, Table 1. The essentials: as §1
Test [1] deals with Ba/F3 cells with EGFR Δ19del/T790M/C797S mutation gene stably overexpressed (Homo sapiens, UniProt P00533, T790M/C797S, cells depend on it, form not given). Description: Ba/F3-Δ19del/T790M/C797S cell proliferation assay (CellTiter Glo, 72 hours). The format is cell-based. The note with it: Table 2, read-out: EGFR Δ19del/T790M/C797S IC50. In a few lines:
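Ba/F3 cells stably overexpressing wild-type EGFR or EGFR Δ19del/T790M/C797S were seeded at 2000 cells/well and incubated 72 h with compound. Viability was read by CellTiter-Glo luminescence, and IC50 came from a four-parameter logistic fit of signal against log concentration.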

Test [2] concerns the target Ba/F3-EGFR wild-type cell line (Homo sapiens, UniProt P00533). In words: Ba/F3-EGFR wild-type cell proliferation assay (CellTiter Glo, 72 hours). The note with it: Table 2, read-out: EGFR WT IC50. The format is cell-based. The procedure:
Cell line: Ba/F3 cells with EGFR Δ19del/T790M/C797S mutation gene stably overexpressed named Ba/F3-Δ119del/T90M/C797S, and A431 and Ba/F3-EGFR wild-type cell line.
a) Centrifuge the growth cells in logarithmic phase at 1000 rpm for 5 minutes, resuspend the cells in culture medium, and then count the cells;
b) Inoculate the cells into a 96-well cell culture plate with a density of 2000 cells/well;
b) Incubate cells in an incubator for another 72 hours.
a) Take out the 96-well cell culture plate and add 50 μl CTG reagent (CellTiter Glo kit, promega, Cat #G7573);
b) Shake the plate for 2 minutes and let cool at room temperature for 10 minutes;
c) Read luminous signal value with PerkinElmer reader,
Analysis of Experimental Data
The data were analyzed by GraphPad Prism 6.0 software to obtain the fitting curve of compound activity.
Y=Min+(Max−Min)/(1+10^((Log IC50−X)*slope));
X: Logarithm of compound concentration; Y: luminous signal.

Chain of IGF1R (P08069 31-1367, species assumed): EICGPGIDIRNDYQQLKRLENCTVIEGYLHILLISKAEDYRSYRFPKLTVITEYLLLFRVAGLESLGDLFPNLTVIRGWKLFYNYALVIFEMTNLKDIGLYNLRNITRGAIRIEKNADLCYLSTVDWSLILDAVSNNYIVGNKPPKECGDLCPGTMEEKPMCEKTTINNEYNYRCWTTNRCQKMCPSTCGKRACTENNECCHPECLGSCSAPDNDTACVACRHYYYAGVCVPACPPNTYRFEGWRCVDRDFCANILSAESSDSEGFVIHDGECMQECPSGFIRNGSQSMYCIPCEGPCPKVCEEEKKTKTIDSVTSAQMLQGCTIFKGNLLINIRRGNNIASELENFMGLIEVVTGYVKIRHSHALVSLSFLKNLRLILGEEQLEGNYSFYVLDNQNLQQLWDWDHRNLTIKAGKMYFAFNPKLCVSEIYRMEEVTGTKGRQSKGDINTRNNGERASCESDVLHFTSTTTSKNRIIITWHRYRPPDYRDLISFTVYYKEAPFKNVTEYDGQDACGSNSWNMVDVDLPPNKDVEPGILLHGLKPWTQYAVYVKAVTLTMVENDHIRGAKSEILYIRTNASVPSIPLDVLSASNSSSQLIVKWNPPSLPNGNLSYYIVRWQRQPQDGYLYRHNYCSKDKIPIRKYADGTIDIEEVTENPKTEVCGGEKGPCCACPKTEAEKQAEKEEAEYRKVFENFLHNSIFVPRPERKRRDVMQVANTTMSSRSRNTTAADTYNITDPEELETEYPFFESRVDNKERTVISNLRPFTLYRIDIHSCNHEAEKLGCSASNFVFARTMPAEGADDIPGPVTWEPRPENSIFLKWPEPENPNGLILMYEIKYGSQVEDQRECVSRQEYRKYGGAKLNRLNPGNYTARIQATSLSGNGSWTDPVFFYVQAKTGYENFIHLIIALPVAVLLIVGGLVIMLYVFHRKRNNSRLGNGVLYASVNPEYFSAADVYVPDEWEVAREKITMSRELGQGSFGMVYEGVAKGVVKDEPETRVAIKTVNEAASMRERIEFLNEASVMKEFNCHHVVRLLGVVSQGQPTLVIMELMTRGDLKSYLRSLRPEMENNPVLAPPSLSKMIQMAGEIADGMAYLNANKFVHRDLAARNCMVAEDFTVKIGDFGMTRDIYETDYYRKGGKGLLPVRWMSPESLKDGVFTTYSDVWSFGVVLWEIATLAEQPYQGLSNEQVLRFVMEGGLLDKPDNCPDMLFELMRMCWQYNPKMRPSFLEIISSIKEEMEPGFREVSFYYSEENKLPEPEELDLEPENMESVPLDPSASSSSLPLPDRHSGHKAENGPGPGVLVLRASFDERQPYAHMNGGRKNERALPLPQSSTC

In general, IC50 refers to the point on the concentration scale where inhibition reaches its midpoint. For the compound `CCc1cc(Nc2ncc(Br)c(Nc3ccc(-c4cn(C)nc4C#N)cc3P(C)(C)=O)n2)c(OC)cc1N1CCC(N2CCN(C)CC2)CC1` [Compound 64, 4-(4-((5-Bromo-2-((5-ethyl-2-methoxy-4-(4-(4-methylpiperazin-1-yl)piperidin-1-yl)phenyl)amino]pyrimidin-4-yl)amino)-3-(dimethylphosphoryl)phenyl)-1-methyl-1H-pyrazole-3-carbonitrile], the IC50 on IGF1R is 330 nM; at EGFRΔ19del/T790M/C797S, 0.8 nM; with A431 (Homo sapiens, A-431, 72 h), above 10000 nM; at EGFR WT it was 43.1 nM. For the same compound, the GI50 in test [1] came to 47.3 nM.
Taken in the same sequence, the figures for `CCc1cc(Nc2ncc(Br)c(Nc3ccc(-c4ncc(C(C)C)cn4)cc3P(C)(C)=O)n2)c(OC)cc1N1CCC(N2CCN(C)CC2)CC1` [Compound 73, (2-((5-Bromo-2-((5-ethyl-2-methoxy-4-(4-(4-methylpiperazin-1-yl)piperidin-1-yl)phenyl)amino)pyrimidin-4-yl)amino)-5-(5-isopropylpyrimidin-2-yl)phenyl)dimethylphosphine oxide] were 223 nM, 0.9 nM, 1530 nM, 38 nM and 39.5 nM.
With `CCc1cc(Nc2ncc(Br)c(Nc3ccc(-c4cnc(N(C)C)nc4)cc3P(C)(C)=O)n2)c(OC)cc1N1CCC(N2CCN(C)CC2)CC1` [Compound 74, (2-((5-Bromo-2-((5-ethyl-2-methoxy-4-(4-(4-methylpiperazin-1-yl)piperidin-1-yl)phenyl)amino)pyrimidin-4-yl)amino)-5-(2-(dimethylamino)pyrimidin-5-yl)phenyl)dimethylphosphine oxide], the 50% inhibitory concentration (IC50) on IGF1R worked out at 186 nM; on EGFRΔ19del/T790M/C797S, 0.3 nM; in the test with A431 (Homo sapiens, A-431, 72 h) it was 1560 nM; against EGFR WT, 24 nM. Further, the GI50 in test [1] was determined as 15.7 nM.
For the compound `CCOc1ncc(-c2ccc(Nc3nc(Nc4cc(CC)c(N5CCC(N6CCN(C)CC6)CC5)cc4OC)ncc3Br)c(P(C)(C)=O)c2)cn1` [Compound 76], the half-inhibitory concentration (IC50) at IGF1R stood at 114 nM; against EGFRΔ19del/T790M/C797S, 0.3 nM; with A431 (Homo sapiens, A-431, 72 h), 1520 nM; against EGFR WT, 36 nM. Moreover, in test [1], the GI50 stood at 37.4 nM.
As for `CCc1cc(Nc2ncc(Br)c(Nc3ccc(-c4cnc(C5CC5)cn4)cc3P(C)(C)=O)n2)c(OC)cc1N1CCC(N2CCN(C)CC2)CC1` [Compound 79, (2-((5-Bromo-2-((5-ethyl-2-methoxy-4-(4-(4-methylpiperazin-1-yl)piperidin-1-yl)phenyl)amino)pyrimidin-4-yl)amino)-5-(5-cyclopropylpyrazin-2-yl)phenyl)dimethylphosphine oxide], the IC50 amounted to 191 nM at IGF1R; 0.4 nM against EGFRΔ19del/T790M/C797S; 5650 nM in the test on A431 (Homo sapiens, A-431, 72 h); 18.1 nM against EGFR WT. In addition, the GI50 in test [1] is 10.7 nM.
For the compound `CCc1cc(Nc2ncc(Br)c(Nc3ccc(-c4cnc(C)cn4)cc3P(C)(C)=O)n2)c(OC)cc1N1CCC(N2CCN(C)CC2)CC1` [Compound 80, (2-((5-Bromo-2-((5-ethyl-2-methoxy-4-(4-(4-methylpiperazin-1-yl)piperidin-1-yl)phenyl)amino)pyrimidin-4-yl)amino)-5-(5-methylpyrazin-2-yl)phenyl)dimethylphosphine oxide], the half-inhibitory concentration (IC50) on IGF1R was determined as 81 nM; at EGFRΔ19del/T790M/C797S, 0.2 nM; with A431 (Homo sapiens, A-431, 72 h), 4610 nM; at EGFR WT it was 12.8 nM. In addition, the GI50 in test [1] was found to be 8.2 nM.
As to `CCc1cc(Nc2ncc(Br)c(Nc3ccc(-c4cnc(C)c(C)n4)cc3P(C)(C)=O)n2)c(OC)cc1N1CCC(N2CCN(C)CC2)CC1` [Compound 81, (2-((5-Bromo-2-((5-ethyl-2-methoxy-4-(4-(4-methylpiperazin-1-yl)piperidin-1-yl)phenyl)amino)pyrimidin-4-yl)amino)-5-(5,6-dimethylpyrazin-2-yl)phenyl)dimethylphosphine oxide], the IC50 on IGF1R was 142 nM; at EGFRΔ19del/T790M/C797S, 0.6 nM; in the test on A431 (Homo sapiens, A-431, 72 h) it was 875 nM; on EGFR WT, 12.6 nM. Further, the GI50 in test [1] stood at 16.8 nM.
In the case of `CCc1cc(Nc2ncc(Br)c(Nc3ccc(-c4ccc(C)nc4)cc3P(C)(C)=O)n2)c(OC)cc1N1CCC(N2CCN(C)CC2)CC1` [Compound 82, (2-((5-Bromo-2-((5-ethyl-2-methoxy-4-(4-(4-methylpiperazin-1-yl)piperidin-1-yl)phenyl)amino)pyrimidin-4-yl)amino)-5-(6-methylpyridin-3-yl)phenyl)dimethylphosphine oxide], the IC50 on IGF1R was found to be 179 nM; against EGFRΔ19del/T790M/C797S, 0.5 nM; in the test on A431 (Homo sapiens, A-431, 72 h), 1620 nM; against EGFR WT it was 29.1 nM. Besides, the GI50 in test [1] turned out to be 27.6 nM.
Turning to `CCc1cc(Nc2ncc(Br)c(Nc3ccc(-c4ccc(C)cn4)cc3P(C)(C)=O)n2)c(OC)cc1N1CCC(N2CCN(C)CC2)CC1` [Compound 83, (2-((5-Bromo-2-((5-ethyl-2-methoxy-4-(4-(4-methylpiperazin-1-yl)piperidin-1-yl)phenyl)amino)pyrimidin-4-yl)amino)-5-(5-methylpyridin-2-yl)phenyl)dimethylphosphine oxide], the IC50 on IGF1R turned out to be 180 nM; on EGFRΔ19del/T790M/C797S, 0.3 nM; in the test on A431 (Homo sapiens, A-431, 72 h) it was 1430 nM; against EGFR WT, 29.4 nM. In test [1], the GI50 was determined as 20.1 nM.
In the same order, the values of `CCc1cc(Nc2ncc(Br)c(Nc3ccc(-n4cc(C)cn4)cc3P(C)(C)=O)n2)c(OC)cc1N1CCC(N2CCN(C)CC2)CC1` [Compound 86, (2-((5-Bromo-2-((5-ethyl-2-methoxy-4-(4-(4-methylpiperazin-1-yl)piperidin-1-yl)phenyl)amino)pyrimidin-4-yl)amino)-5-(4-methyl-1H-pyrazol-1-yl)phenyl)dimethylphosphine oxide] are 219 nM, 0.7 nM, 1610 nM, 26.7 nM and 37.4 nM.
For `CCc1cc(Nc2ncc(Br)c(Nc3ccc(-c4ncc(C(C)C)cn4)cc3P(C)(C)=O)n2)c(OC)cc1N1CCC(N2CCN(C)CC2)CC1` [Compound K-056, (2-((5-Bromo-2-((5-ethyl-2-methoxy-4-(4-(4-methylpiperazin-1-yl)piperidin-1-yl)phenyl)amino)pyrimidin-4-yl)amino)-5-(5-isopropylpyrimidin-2-yl)phenyl)dimethylphosphine oxide], the GI50 in test [2] came to 524 nM.
The same measure, in the same setting: under `CCc1cc(Nc2ncc(Br)c(Nc3ccc(-c4cnc(N(C)C)nc4)cc3P(C)(C)=O)n2)c(OC)cc1N1CCC(N2CCN(C)CC2)CC1` [Compound K-057, (2-((5-Bromo-2-((5-ethyl-2-methoxy-4-(4-(4-methylpiperazin-1-yl)piperidin-1-yl)phenyl)amino)pyrimidin-4-yl)amino)-5-(2-(dimethylamino)pyrimidin-5-yl)phenyl)dimethylphosphine oxide] stands 206 nM; under `CCOc1ncc(-c2ccc(Nc3nc(Nc4cc(CC)c(N5CCC(N6CCN(C)CC6)CC5)cc4OC)ncc3Br)c(P(C)(C)=O)c2)cn1` [Compound K-059, (2-((5-Bromo-2-((5-ethyl-2-methoxy-4-(4-(4-methylpiperazin-1-yl)piperidin-1-yl)phenyl)amino)pyrimidin-4-yl)amino)-5-(2-ethoxypyrimidin-5-yl)phenyl)dimethylphosphine oxide], 352 nM.
For the compound “(2-((5-Bromo-2-((5-ethyl-2-methoxy-4-(4-(4-methylpiperazin-1-yl)piperidin-1-yl)phenyl)amino]amino]pyrimidin-4-yl)amino)-5-(4-methoxy-1H-pyrazol-1-yl)phenyl)dimethylphosphine oxide [Compound 50]”, the IC50 turned out to be 268 nM on IGF1R, 0.2 nM against EGFRΔ19del/T790M/C797S, 1510 nM with A431 and 32 nM on EGFR WT. Besides, the GI50 in test [1] was 19.1 nM.
